Data as given in patent publication US7923452B2, “Fungicidal mixtures comprising boscalid and pyrimethanil” (BASF SE, priority 2005, dated 2011).

Tested on: Puccinia recondita
Assay: Protective activity against Puccinia recondita on wheat (brown rust of wheat) (Puccrt P1)
Type: in vivo, Puccinia recondita on wheat seedlings cultivar "Kanzler"
Conditions: single active compound, protective spray 1 day before inoculation, efficacy in % of untreated control (Abbot), read-out: Observed activity (%)
Protocol: The active compounds, separately or jointly, were prepared as a stock solution comprising 25 mg of active compound which was made up to 10 ml using a mixture of acetone and/or dimethyl sulfoxide and the emulsifier Uniperol® EL (wetting agent having an emulsifying and dispersing action based on ethoxylated alkylphenols) in a ratio by volume of solvent/emulsifier of 99:1. The mixture was then made up to 100 ml with water. This stock solution was diluted with the solvent/emulsifier/water mixture described to give the concentration of active compound stated below.
The visually determined percentages of infected leaf areas were converted into efficacies in % of the untreated control:
The efficacy (E) is calculated as follows using Abbot's formula. W=(1−α/β)·100 α corresponds to the fungicidal infection of the treated plants in % and β corresponds to the fungicidal infection of the untreated (control) plants in %
At an efficacy of 0, the infection level of the treated plants corresponds to that of the untreated control plants; at an efficacy of 100, the treated plants are not infected.
The expected efficacies of active compound mixtures were determined using Colby's formula (S. R. Colby, “Calculating synergistic and antagonistic responses of herbicide combinations”, Weeds 15, 20-22 (1967)) and compared with the observed efficacies.
Colby's formula: E=x+y−x−y/100 • E expected efficacy, expressed in % of the untreated control, when using the mixture of the active compounds A and B at the concentrations a and b; • x efficacy, expressed in % of the untreated control, when using the active compound A at the concentration a; • y efficacy, expressed in % of the untreated control, when using the active compound B at the concentration b;
Leaves of potted wheat seedlings of the cultivar “Kanzler” were sprayed to runoff point with an aqueous suspension having the concentration of active compound stated below. […] The extent of the rust fungus development on the leaves was then determined visually.

Row | SMILES | inhibition at 8 ppm (8 ppm) | inhibition at 2 ppm (2 ppm) | inhibition at 4 ppm (4 ppm)
1 | O=C(Nc1ccccc1-c1ccc(Cl)cc1)c1cccnc1Cl [Boscalid, boscalid] | 22% |  | 
2 | Cc1cc(C)nc(Nc2ccccc2)n1 [Pyrimethanil, pyrimethanil] |  | 0% | 0%
